Where “and” joins values, the source holds several entries; their conditions need not be identical. Equal entries are not always repeated.
Legend:
[1] = test system: MiaPaCa-2-RFP tumor fragments; test: In vivo pancreatic cancer study, surgical orthotopic implantation of MiaPaCa-2-RFP tumor fragments; parameters: species or system NCr nu/nu males; conditions: FIG. 9
From the text: The effectiveness of the disclosed compounds as a treatment for pancreatic cancer was investigated. 60 NCr nu/nu males, 5-6 weeks old were transplanted by surgical orthotopic implantation (SOI) using MiaPaCa-2-RFP tumor fragments harvested from stock animals. The animals were anesthetized with isoflurane and the surgical area was sterilized using iodine and alcohol. An incision approximately 1.5 cm long was made in the left upper abdomen of the nude mouse using a pair of surgical scissors. […] The abdomen was closed with 6-0 surgical sutures (silk). All procedures of the operation described above were performed with a 7× magnification microscope (Olympus) under HEPA filtered laminar flow hoods. Dosing of the animals began three days following tumor implantation. The high dose of gemcitabine was 150 mg/kg. The low dose of gemcitabine was 100 mg/kg. […] was given at 20 mg/kg. […] The animals were divided into the following groups often animals each as depicted in Table XXII.

Renca renal cancer cells = test: In vivo anticancer study, renal cell carcinoma (Renca); parameters: species or system Balb/c mice; conditions: FIG. 1 and FIG. 2
Protocol: The effectiveness of the disclosed compounds as a treatment against renal cell carcinoma was studied. Balb/c mice (6-8 weeks-old, female, Taconic Farm) were inoculated with Renca renal cancer cells (5×10^5 cells/site). […] Tumor volumes were recorded.

B16 melanoma cells = test: In vivo anticancer study, B16 melanoma; parameters: species or system C57BL/6 mice
Protocol: The effectiveness of the disclosed compounds as a treatment for melanoma was studied. C57BL/6 mice (6-8 weeks-old, female, Taconic Farm) were inoculated with B16 melanoma cells (5×10^4 cells/site, s.c.). […] Tumor volumes were recorded. […] Tumor volumes were recorded.

[2] = test system: H460-GFP human tumor cells; test: In vivo anti-metastasis study, surgical orthotopic implantation of H460-GFP tumor fragments on the lung; parameters: species or system NCr nu/nu male mice; conditions: for Evidence of Metastasis (individual mouse): mice No. 1-10; for # mice with metastases: ten mice per group
Protocol: A total of 50 NCr nu/nu male mice aged 5-6 weeks were selected for the following in vivo test. H460-GFP human tumor cells were grown subcutaneously in NCr nu/nu male mice after which the resulting tumors were harvested. Subsequent to harvesting, recipient NCr nu/nu mice of this study had tumor fragments transplanted by surgical orthotopic implantation (SOI). Each animal was anesthetized is isofurane and the surgical area was sterilized with iodine and alcohol. A transverse incision approximately 1.5 cm long was made in the left chest wall of the mice using a pair of surgical scissors. An intercostal incision was made between the third and the fourth costa and the left lung was exposed. Two pieces of H460-GFP tumor fragments were transplanted to the surface of the lung with 8-0 surgical nylon suture. […]. The lung was re-inflated by the intrathoracic puncture using 3 cc syringe with 25 G 11⁄2 needle to draw out the remaining air in the chest cavity. The chest wall was closed with 6-0 surgical silk sutures. All procedures of the operation described above were performed with a 7× magnification microscope (Olympus) under HEPA filtered laminar flow hoods. The treated mice were divided into five groups containing ten mice each. Group I (Control) received 100 μL the drug vehicle twice daily for 15 days. Group II received 15 mg/kg of taxol intravenously at days 6, 9, 12, and 15. […] Group IV received 10 mg/kg of taxol intravenously at days 6, 9, 12, and 15 and 15 mg/kg of the Test Compound twice per day from day 3 to day 15. Group V received 15 mg/kg of the Test Compound twice per day from day 3 to day 15. All animals were sacrificed on day 28. Each animal was checked twice a week for primary tumor and metastasis via GFP open imaging of the mediastinal lymph nodes. No metastasis was found on any other organs. Six mice from the control group died before the end of the study, but were evaluated for tumor and/or cellular metastasis.

COC(=O)N[C@@H](Cc1ccccc1)C(=O)N[C@@H](Cc1ccc(NS(=O)(=O)O)cc1)c1csc(-c2cccs2)n1 [D91, 4-{(S)-2-[(S)-2-(Methoxycarbonylamino)-3-phenylpropanamido]-2-[2-(thiophen-2-yl)thiazol-4-yl]ethyl}phenylsulfamic acid]
pancreatic tumor volume ([1]; D91 20 mg/kg s.c. twice daily alone, day 28): significant reduction in pancreatic tumor volume
tumor volume ([1]; combination of low dose gemcitabine (100 mg/kg i.p.) and 20 mg/kg D91, compared with either alone): greater reduction in tumor volume
reducing tumor volume, compared with IL-2 (Renca renal cancer cells; D91 40 mg/kg bid s.c. versus IL-2 100,000 IU/mouse bid i.p.): as effective as IL-2 in reducing tumor volume
renal tumor growth (Renca renal cancer cells; D91 40 mg/kg, bid, s.c. alone): significantly reduced renal tumor growth
tumor volume (Renca renal cancer cells; combination of D91 (40 mg/kg, bid, s.c.) and IL-2 (100,000 IU/mouse, bid, i.p.)): further reduced tumor volume
B16 melanoma tumor volume (B16 melanoma cells; 40 mg/kg b.i.d. D91 alone versus vehicle control, FIG. 8): effectiveness
tumor volume (B16 melanoma cells; high dose of IL-2 (300,000 IU/mouse, bid, i.p.) in combination with high dose of D91 (40 mg/kg, bid, s.c.), compared to high dose IL-2 alone, FIG. 3): significantly reduced tumor volume as compared to high dose of IL-2
tumor volume (B16 melanoma cells; low dose of IL-2 (100,000 IU/mouse, bid, i.p.) in combination with high dose of D91 (40 mg/kg, bid, s.c.) versus control, FIG. 6): significantly reduced tumor volume versus control
Evidence of Metastasis (individual mouse) ([2]; Group V: D91 15 mg/kg twice per day, day 3 to 15, 15 mg/kg): Yes (2×) and No (8×)
# mice with metastases ([2]; Group V: D91 15 mg/kg twice per day, day 3 to 15): 2

CC(=O)O[C@H]1C(=O)[C@@]2(C)[C@H]([C@H](OC(=O)c3ccccc3)[C@]3(O)C[C@H](OC(=O)[C@H](O)[C@@H](NC(=O)c4ccccc4)c4ccccc4)C(C)=C1C3(C)C)[C@]1(OC(C)=O)CO[C@@H]1C[C@@H]2O [taxol, reference compound]
Evidence of Metastasis (individual mouse) ([2]; Group II: taxol 15 mg/kg i.v. at days 6, 9, 12, 15, GFP open imaging of mediastinal lymph nodes): No (9×) and Yes
# mice with metastases ([2]; Group II: taxol 15 mg/kg i.v. at days 6, 9, 12, 15): 1
